What was measured:
[1] = molecular target: human sodium glucose co-transporter 2 (Homo sapiens (Human), UniProt P31639); assay: SGLT-2 assay: 14C-AMG uptake in CHO-hSGLT2 or HEK-hSGLT2 cells; type: cell-based; details: n = 1-4, cells stably transfected with hSGLT2, read-out: SGLT2 IC50 nM (n = 1-4)
Method: These cell lines transport 14 C-labelled alpha-methyl-glucopyranoside (14 C-AMG, Amersham) into the interior of the cell in sodium-dependent manner.
(§1) The SGLT-2 assay is carried out as follows: CHO-hSGLT2 cells are cultivated in Ham's F12 Medium (BioWhittaker) with 10% foetal calf serum and 250 μg/mL zeocin (Invitrogen), and HEK293-hSGLT2 cells are cultivated in DMEM medium with 10% foetal calf serum and 250 μg/mL zeocin (Invitrogen). The cells are detached from the culture flasks by washing twice with PBS and subsequently treating with trypsin/EDTA. After the addition of cell culture medium the cells are centrifuged, resuspended in culture medium and counted in a Casy cell counter. Then 40,000 cells per well are seeded into a white, 96-well plate coated with poly-D-lysine and incubated overnight at 37° C., 5% CO2. The cells are washed twice with 250 μl of assay buffer (Hanks Balanced Salt Solution, 137 mM NaCl, 5.4 mM KCl, 2.8 mM CaCl2, 1.2 mM MgSO4 and 10 mM HEPES (pH 7.4), 50 μg/mL of gentamycin). 250 μl of assay buffer and 5 μl of test compound are then added to each well and the plate is incubated for a further 15 minutes in the incubator. 5 μl of 10% DMSO are used as the negative control. The reaction is started by adding 5 μl of 14 C-AMG (0.05 μCi) to each well. After 2 hours' incubation at 37° C., 5% CO2, the cells are washed again with 250 μl of PBS […] and then lysed by the addition of 25 μl of 0.1 N NaOH (5 min. at 37° C.). 200 μl of MicroScint20 (Packard) are added to each well and incubation is continued for a further 20 min at 37° C. After this incubation the radioactivity of the 14 C-AMG absorbed is measured in a Topcount (Packard) using a 14 C scintillation program.

human SGLT1 = human SGLT1 (Homo sapiens (Human), UniProt P13866); assay: SGLT1 assay: analogous test with hSGLT1 cDNA expressed in CHO-K1 or HEK293 cells; type: cell-based; details: n = 1-4; 14C-AMG uptake, cells expressing hSGLT1
human SGLT1, sequence (P13866 whole entry): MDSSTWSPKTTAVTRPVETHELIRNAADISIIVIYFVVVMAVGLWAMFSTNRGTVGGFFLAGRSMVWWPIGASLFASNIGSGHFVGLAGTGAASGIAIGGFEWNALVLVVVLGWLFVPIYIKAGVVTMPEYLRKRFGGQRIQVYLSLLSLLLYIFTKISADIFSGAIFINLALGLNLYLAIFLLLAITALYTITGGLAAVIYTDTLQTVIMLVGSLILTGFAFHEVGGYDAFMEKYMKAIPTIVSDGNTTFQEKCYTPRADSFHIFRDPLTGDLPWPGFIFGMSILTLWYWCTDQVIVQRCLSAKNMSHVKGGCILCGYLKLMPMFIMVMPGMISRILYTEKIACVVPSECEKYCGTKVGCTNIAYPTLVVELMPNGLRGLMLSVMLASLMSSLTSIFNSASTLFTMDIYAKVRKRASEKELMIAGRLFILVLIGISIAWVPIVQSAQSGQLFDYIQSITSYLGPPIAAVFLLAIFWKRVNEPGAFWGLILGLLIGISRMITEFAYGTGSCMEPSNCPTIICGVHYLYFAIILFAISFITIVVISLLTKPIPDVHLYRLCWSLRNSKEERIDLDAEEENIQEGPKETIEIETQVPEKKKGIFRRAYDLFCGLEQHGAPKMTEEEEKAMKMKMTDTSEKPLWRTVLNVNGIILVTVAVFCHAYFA
Method: as §1
To determine the selectivity with respect to human SGLT1 an analogous test is set up in which the cDNA for hSGLTI (Genbank Ace. No. NM000343) instead of hSGLT2 cDNA is expressed in CHO-K1 or HEK293 cells.

human sodium glucose co-transporter 2, sequence (P31639 whole entry): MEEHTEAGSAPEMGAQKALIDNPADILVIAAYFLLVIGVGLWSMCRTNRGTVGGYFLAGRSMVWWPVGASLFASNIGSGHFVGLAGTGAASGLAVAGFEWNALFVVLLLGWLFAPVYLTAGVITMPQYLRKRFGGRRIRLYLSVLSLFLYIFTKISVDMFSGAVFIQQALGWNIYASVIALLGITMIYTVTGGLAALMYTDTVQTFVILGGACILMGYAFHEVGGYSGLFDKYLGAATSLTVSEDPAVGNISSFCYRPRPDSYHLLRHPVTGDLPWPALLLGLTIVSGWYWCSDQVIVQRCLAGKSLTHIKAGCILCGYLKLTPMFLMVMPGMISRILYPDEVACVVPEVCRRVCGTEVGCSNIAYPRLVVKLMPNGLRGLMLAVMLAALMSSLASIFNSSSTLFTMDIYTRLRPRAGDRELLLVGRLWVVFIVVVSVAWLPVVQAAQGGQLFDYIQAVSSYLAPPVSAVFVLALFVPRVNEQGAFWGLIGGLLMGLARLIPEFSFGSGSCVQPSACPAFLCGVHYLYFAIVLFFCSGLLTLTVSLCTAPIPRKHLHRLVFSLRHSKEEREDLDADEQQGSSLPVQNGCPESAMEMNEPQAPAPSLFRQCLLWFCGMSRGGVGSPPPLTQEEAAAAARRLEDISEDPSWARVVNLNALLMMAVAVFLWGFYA

SMILES	IC50 [1] [nM]	IC50 (human SGLT1) [nM]
OC[C@H]1O[C@@H](c2ccc(Cl)c(Cc3ccc4c(c3)CCCO4)c2)[C@H](O)[C@@H](O)[C@@H]1O [Example 21, (2S,3R,4R,5S,6R)-2-(4-Chloro-3-chroman-6-ylmethyl-phenyl)-6-hydroxymethyl-tetrahydro-pyran-3,4,5-triol]	0.2	1100
O=C1COc2cc(Cc3cc([C@@H]4O[C@H](CO)[C@@H](O)[C@H](O)[C@H]4O)ccc3Cl)ccc2N1 [Example 42, 7-[2-Chloro-5-((2S,3R,4R,5S,6R)-3,4,5-trihydroxy-6-hydroxymethyl-tetrahydro-pyran-2-yl)-benzyl]-4H-benzo[1,4]oxazin-3-one]	0.35	105
COc1ccc([C@@H]2O[C@H](CO)[C@@H](O)[C@H](O)[C@H]2O)cc1Cc1ccc2c(c1)OCC(=O)N2 [Example 43, 7-[2-Methoxy-5-((2S,3R,4R,5S,6R)-3,4,5-trihydroxy-6-hydroxymethyl-tetrahydro-pyran-2-yl)-benzyl]-4H-benzo[1,4]oxazin-3-one]	3.9	59
OC[C@H]1O[C@@H](c2ccc(C3CC3)c(Cc3ccc4c(c3)NCCO4)c2)[C@H](O)[C@@H](O)[C@@H]1O [Example 65, (2S,3R,4R,5S,6R)-2-[4-Cyclopropyl-3-(3,4-dihydro-2H-benzo[1,4]oxazin-6-ylmethyl)-phenyl]-6-hydroxymethyl-tetrahydro-pyran-3,4,5-triol]	2.7	170
OC[C@H]1O[C@@H](c2ccc(Cl)c(Cc3ccc4c(c3)OCCN4C3CC3)c2)[C@H](O)[C@@H](O)[C@@H]1O [Example 3, (2S,3R,4R,5S,6R)-2-[4-Chloro-3-(4-cyclopropyl-3,4-dihydro-2Hbenzo[1,4]oxazin-7ylmethyl)-phenyl]-6-hydroxymethyltetrahydropyran3,4,5-triol]	16	–
OC[C@H]1O[C@@H](c2ccc(Cl)c(Cc3ccc4c(c3)OCCN4)c2)[C@H](O)[C@@H](O)[C@@H]1O [Example 28, (2S,3R,4R,5S,6R)-2-[4-Chloro-3-(3,4-dihydro-2H-benzo[1,4]oxazin-7-ylmethyl)-phenyl]-6-hydroxymethyl-tetrahydro-pyran-3,4,5-triol]	0.33	1000
OC[C@H]1O[C@@H](c2ccc(Cl)c(Cc3ccc4c(c3)C3(CCO4)CC3)c2)[C@H](O)[C@@H](O)[C@@H]1O [Example 29, (2S,3R,4R,5S,6R)-2-[4-Chloro-3-(4,4-spiro-cyclopropyl-chroman-6-ylmethyl)-phenyl]-6-hydroxymethyl-tetrahydro-pyran-3,4,5-triol]	84.5	7000
O=C1COc2ccc(Cc3cc([C@@H]4O[C@H](CO)[C@@H](O)[C@H](O)[C@H]4O)ccc3Cl)cc2N1 [Example 47, 6-(2-chloro-5-((2S,3R,4R,5S,6R)-3,4,5-trihydroxy-6-(hydroxymethyl)tetrahydro-2H-pyran-2-yl)benzyl)-2H-benzo[b][1,4]oxazin-3(4H)-one]	16.5	> 3200
CN1CCOc2cc(Cc3cc([C@@H]4O[C@H](CO)[C@@H](O)[C@H](O)[C@H]4O)ccc3Cl)ccc21 [Example 1, (2S,3R,4R,5S,6R)-2-[4-Chloro-3-(4-methyl-3,4-dihydro-2H benzo[1,4]oxazin-7-ylmethyl)-phenyl]-6-hydroxymethyl-tetrahydro-pyran-3,4,5-triol]	2.7	655
COc1ccc([C@@H]2O[C@H](CO)[C@@H](O)[C@H](O)[C@H]2O)cc1Cc1ccc2c(c1)OCCO2 [Example 25, (2S,3R,4R,5S,6R)-2-[3-(2,3-Dihydro-benzo[1,4]dioxin-6-ylmethyl)-4-methoxy-phenyl]-6-hydroxymethyl-tetrahydro-pyran-3,4,5-triol]	1.5	40
OC[C@H]1O[C@@H](c2ccc(Cl)c(Cc3ccc4c(c3)CCO4)c2)[C@H](O)[C@@H](O)[C@@H]1O [Example 22, (2S,3R,4R,5S,6R)-2-[4-Chloro-3-(2,3-dihydro-benzofuran-5-ylmethyl)-phenyl]-6-hydroxymethyl-tetrahydro-pyran-3,4,5-triol]	0.4	–
OC[C@H]1O[C@@H](c2ccc(Cl)c(Cc3ccc4c(c3)CCCN4)c2)[C@H](O)[C@@H](O)[C@@H]1O [Example 15, (2S,3R,4R,5S,6R)-2-[4-Chloro-3-(1,2,3,4-tetrahydro-quinolin-6-ylmethyl)-phenyl]-6-hydroxymethyl-tetrahydro-pyran-3,4,5-triol]	0.2	650
CCN1CCOc2ccc(Cc3cc([C@@H]4O[C@H](CO)[C@@H](O)[C@H](O)[C@H]4O)ccc3Cl)cc21 [Example 9, (2S,3R,4R,5S,6R)-2-[4-Chloro-3-(4-ethyl-3,4-dihydro-2H-benzo[1,4]oxazin-6-ylmethyl)-phenyl]-6-hydroxymethyl-tetrahydro-pyran-3,4,5-triol]	7.2	–
OC[C@H]1O[C@@H](c2ccc(OC(F)(F)F)c(Cc3ccc4c(c3)CCCO4)c2)[C@H](O)[C@@H](O)[C@@H]1O [Example 33, (2S,3R,4R,5S,6R)-2-(3-Chroman-6-ylmethyl-4-trifluoromethoxy-phenyl)-6-hydroxymethyl-tetrahydro-pyran-3,4,5-triol]	11	157
OC[C@H]1O[C@@H](c2ccc(Cl)c(Cc3ccc4c(c3)N(CC3CC3)CCO4)c2)[C@H](O)[C@@H](O)[C@@H]1O [Example 10, (2S,3R,4R,5S,6R)-2-[4-Chloro-3-(4-cyclopropylmethyl-3,4-dihydro-2H-benzo[1,4]oxazin-6-ylmethyl)-phenyl]-6-hydroxymethyl-tetrahydro-pyran-3,4,5-triol]	18	–
O=C1CCOc2ccc(Cc3cc([C@@H]4O[C@H](CO)[C@@H](O)[C@H](O)[C@H]4O)ccc3Cl)cc21 [Example 35, 6-[2-Chloro-5-((2S,3R,4R,5S,6R)-3,4,5-trihydroxy-6-hydroxymethyl-tetrahydro-pyran-2-yl)-benzyl]-chroman-4-one]	9.5	1100
CC1(C)Oc2ccc(Cc3cc([C@@H]4O[C@H](CO)[C@@H](O)[C@H](O)[C@H]4O)ccc3Cl)cc2NC1=O [Example 46, 6-[2-Chloro-5-((2S,3R,4R,5S,6R)-3,4,5-trihydroxy-6-hydroxymethyl-tetrahydro-pyran-2-yl)-benzyl]-2,2-dimethyl-4H-benzo[1,4]oxazin-3-one]	14	> 3900
CC(C)c1ccc([C@@H]2O[C@H](CO)[C@@H](O)[C@H](O)[C@H]2O)cc1Cc1ccc2c(c1)NCCO2 [Example 69, (2S,3R,4R,5S,6R)-2-[3-(3,4-Dihydro-2H-benzo[1,4]oxazin-6-ylmethyl)-4-isopropyl-phenyl]-6-hydroxymethyl-tetrahydro-pyran-3,4,5-triol]	1.2	37
OC[C@H]1O[C@@H](c2ccc(Cl)c(Cc3ccc4c(c3)C(O)CCO4)c2)[C@H](O)[C@@H](O)[C@@H]1O (stereo partly drawn) [Example 36, (2S,3R,4R,5S,6R)-2-[4-Chloro-3-(4-hydroxy-chroman-6-ylmethyl)-phenyl]-6-hydroxymethyl-tetrahydro-pyran-3,4,5-triol]	28	–
COc1ccc([C@@H]2O[C@H](CO)[C@@H](O)[C@H](O)[C@H]2O)cc1Cc1ccc2c(c1)CCC1(CCC1)O2 [Example 41, (2S,3R,4R,5S,6R)-2-[4-methoxy-3-(spiro[chromane-2,1′-cyclobutane]-6-ylmethyl)phenyl]-6-(hydroxymethyl)tetrahydropyran-3,4,5-triol]	16.2	1620
CCN1CCOc2cc(Cc3cc([C@@H]4O[C@H](CO)[C@@H](O)[C@H](O)[C@H]4O)ccc3Cl)ccc21 [Example 2, (2S,3R,4R,5S,6R)-2-[4-Chloro-3-(4-ethyl-3,4-dihydro-2H-benzo[1,4]oxazin-7-ylmethyl)-phenyl]-6-hydroxymethyl-tetrahydro-pyran-3,4,5-triol]	11.1	2500
OC[C@H]1O[C@@H](c2ccc(Cl)c(Cc3ccc4c(c3)CCC3(CCCC3)O4)c2)[C@H](O)[C@@H](O)[C@@H]1O [Example 38, (2S,3R,4R,5S,6R)-2-[4-Chloro-3-(spiro[chromane-2,1′-cyclopentane]-6-ylmethyl)phenyl]-6-(hydroxymethyl)tetrahydropyran-3,4,5-triol]	14.4	–
OC[C@H]1O[C@@H](c2ccc(Cl)c(Cc3ccc4c(c3)N(Cc3ccccc3)CCO4)c2)[C@H](O)[C@@H](O)[C@@H]1O [Example 4, (2S,3R,4R,5S,6R)-2-[3-(4-Benzyl-3,4-dihydro-2H-benzo[1,4]oxazin-6-ylmethyl)-4-chloro-phenyl]-6-hydroxymethyl-tetrahydro-pyran-3,4,5-triol]	65	–
